From the supplement of paper PMC11451515

Test system: SEM cells
Experiment: cell viability relative to DMSO control; higher = less cytotoxic
Details: 48 h
Procedure, shortened: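 Viability values are per-plate percentages of DMSO wells, with background from cell-free wells. Library compounds in DMSO were pin-dosed, in an 11-point threefold series from 47 μM to 0.79 nM, onto NOMO1 or SEM (500 cells/well) or P12-Ichikawa (1000 cells/well) leukemia cells in 1536-well plates (5 μl). Those cells had been adapted for at least four passages in each medium, and CellTiter-Glo One luminescence was read after 48 h at 37°C.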

[1] = HPLM + 10% dialyzed FBS, 0.000781 µM
[2] = HPLM + 10% dialyzed FBS, 0.00234 µM
[3] = HPLM + 10% dialyzed FBS, 0.00702 µM
[4] = HPLM + 10% dialyzed FBS, 0.0211 µM
[5] = HPLM + 10% dialyzed FBS, 0.0632 µM
[6] = HPLM + 10% dialyzed FBS, 0.19 µM
[7] = HPLM + 10% dialyzed FBS, 0.569 µM
[8] = HPLM + 10% dialyzed FBS, 1.71 µM
[9] = HPLM + 10% dialyzed FBS, 5.12 µM
[10] = HPLM + 10% dialyzed FBS, 15.4 µM
[11] = HPLM + 10% dialyzed FBS, 46.1 µM
[12] = RPMI 5 mM glucose + 10% FBS, 0.000781 µM
[13] = RPMI 5 mM glucose + 10% FBS, 0.00234 µM
[14] = RPMI 5 mM glucose + 10% FBS, 0.00702 µM
[15] = RPMI 5 mM glucose + 10% FBS, 0.0211 µM
[16] = RPMI 5 mM glucose + 10% FBS, 0.0632 µM
[17] = RPMI 5 mM glucose + 10% FBS, 0.19 µM
[18] = RPMI 5 mM glucose + 10% FBS, 0.569 µM
[19] = RPMI 5 mM glucose + 10% FBS, 1.71 µM
[20] = RPMI 5 mM glucose + 10% FBS, 5.12 µM
[21] = RPMI 5 mM glucose + 10% FBS, 15.4 µM
[22] = RPMI 5 mM glucose + 10% FBS, 46.1 µM
[23] = RPMI 5 mM glucose + 10% dialyzed FBS, 0.000781 µM
[24] = RPMI 5 mM glucose + 10% dialyzed FBS, 0.00234 µM
[25] = RPMI 5 mM glucose + 10% dialyzed FBS, 0.00702 µM
[26] = RPMI 5 mM glucose + 10% dialyzed FBS, 0.0211 µM
[27] = RPMI 5 mM glucose + 10% dialyzed FBS, 0.0632 µM
[28] = RPMI 5 mM glucose + 10% dialyzed FBS, 0.19 µM
[29] = RPMI 5 mM glucose + 10% dialyzed FBS, 0.569 µM
[30] = RPMI 5 mM glucose + 10% dialyzed FBS, 1.71 µM
[31] = RPMI 5 mM glucose + 10% dialyzed FBS, 5.12 µM
[32] = RPMI 5 mM glucose + 10% dialyzed FBS, 15.4 µM
[33] = RPMI 5 mM glucose + 10% dialyzed FBS, 46.1 µM

SMILES | cell viability [1] | cell viability [2] | cell viability [3] | cell viability [4] | cell viability [5] | cell viability [6] | cell viability [7] | cell viability [8] | cell viability [9] | cell viability [10] | cell viability [11] | cell viability [12] | cell viability [13] | cell viability [14] | cell viability [15] | cell viability [16] | cell viability [17] | cell viability [18] | cell viability [19] | cell viability [20] | cell viability [21] | cell viability [22] | cell viability [23] | cell viability [24] | cell viability [25] | cell viability [26] | cell viability [27] | cell viability [28] | cell viability [29] | cell viability [30] | cell viability [31] | cell viability [32] | cell viability [33]
COc1cccc2c1C(=O)c1c(O)c3c(c(O)c1C2=O)C[C@@](O)(C(C)=O)C[C@@H]3O[C@H]1C[C@H](N)[C@H](O)[C@H](C)O1 | 74.5% | 83.9% | 85.3% | 90.3% | 55.3% | 25.3% | 7.3% | 7.11% | 6.71% | 7.18% | 5.34% | 82.3% | 98.4% | 91.9% | 77.3% | 40% | 21.8% | 7.4% | 7.93% | 7.89% | 7.75% | 6.05% | 88.6% | 89% | 96.2% | 84.3% | 59.2% | 29.4% | 9.48% | 8.29% | 8.52% | 8.22% | 6.01%
CC(C)(C)NC(=O)[C@@H]1CN(Cc2cccnc2)CCN1C[C@@H](O)C[C@@H](Cc1ccccc1)C(=O)N[C@H]1c2ccccc2C[C@H]1O.O=S(=O)(O)O | 73.5% | 89.2% | 93.5% | 100% | 94.1% | 96.5% | 104% | 90.9% | 93.3% | 90.3% | 78.7% | 109% | 99.5% | 104% | 114% | 107% | 108% | 112% | 122% | 95.6% | 92.1% | 54.5% | 102% | 102% | 109% | 119% | 94.9% | 118% | 122% | 112% | 96.9% | 90.4% | 62.8%
CN(C)CCN(Cc1ccc(Cl)cc1)c1ccccn1.Cl | 79.9% | 80.5% | 80.9% | 80.1% | 79.3% | 84.8% | 89.9% | 94.4% | 86.6% | 88% | 86.9% | 90.8% | 90.8% | 92.8% | 84.4% | 95.7% | 108% | 102% | 99.5% | 98.8% | 103% | 84.7% | 83.2% | 92.1% | 96.4% | 100% | 94% | 106% | 84% | 96.1% | 92.2% | 106% | 91.6%
COC1(C[S+]([O-])c2ccccc2)CCN(CCc2c[nH]c3ccc(F)cc23)CC1 (centres undefined) | 119% | 119% | 122% | 104% | 123% | 111% | 109% | 100% | 122% | 110% | 93.5% | 120% | 109% | 117% | 106% | 119% | 113% | 116% | 111% | 117% | 110% | 95.6% | – | – | – | – | – | – | – | – | – | – | –
C#Cc1cccc(Nc2ncnc3cc(OC)c(OCCCCCCC(=O)NO)cc23)c1 | 118% | 119% | 104% | 110% | 95.9% | 73.4% | 44% | 15.1% | 6.25% | 5.23% | 3.28% | 88.3% | 91.8% | 75.6% | 81.3% | 69.8% | 46.3% | 26.5% | 6.61% | 4.45% | 3.81% | 1.74% | 119% | 123% | 108% | 120% | 117% | 59.2% | 28.8% | 9.73% | 6.06% | 5.12% | 2.79%
